Several values for one entry are separate records, joined by “and”; a condition that tells them apart may be missing. Equal values may be shown once.
Key:
MDA-MB-231 cells [1] = assay: High-content epigenetic inhibitor screen, quantification of living cells; assay type: cell-based, human; conditions: 3 μM, 72 h
Text: (§1) HeLa, MCF-7 and MDA-MB-231 cell lines were purchased from the American Type Culture Collection. MCF-10A, T-47D, PANC-1, A549, HCT-15, Caco-2, SMMC-7721, SH-SY5Y, HUVEC and PC-3 cell lines were obtained from the Chinese Academy of Medical Sciences. MEF was isolated from pregnant mice at 14‒16 days of pregnancy. Primary breast cancer cells were isolated from breast cancer patients. All media including Dulbecco Modified Eagle Medium (DMEM), RPMI 1640 Medium and DMEM/Nutrient Mixture F-12 were supplemented with 10% fetal bovine serum (FBS), 100 units/mL penicillin, and […] streptomycin (Gibco, Waltham, MA, USA). Cells were cultured in a humidified incubator equilibrated with 5% CO2 at 37 °C. Cells were treated for 24-72 h in adherent conditions with compounds from an epigenetic small molecule inhibitor library (L1200, Topscience, Shanghai, China).
(§2) Statistical analyses of all data were performed using GraphPad Prism (version 8.0, Graph Pad Software Inc., San Diego, CA, USA). All the data were analyzed by Student's t-test or one-way ANOVA. The Z-Score was chosen to evaluate the results and experimental deviation. Quantitative data are presented as the mean ± SD. The asterisk (*) denotes statistically significant difference (P < 0.05). IC50 was calculated using a four-parameter fit with variable slope in GraphPad Prism.
To identify potential anti-tumor inhibitors, we screened an epigenetic small molecule inhibitor library for anti-tumor activity in breast cancer cells. […] The selection strategy mainly comprised three stages, in which different concentrations (high to low) of inhibitors screened with a high-content analysis instrument were identified using cancer cell lines in a 96-well plate format (Figure 1A). For the first step, we treated cells with a high concentration of compounds to exclude compounds ineffective in killing cancer cells. MDA-MB-231 cells, a human breast cancer cell line, were treated with 167 epigenetic compounds (30 μM each) for 48 h, and then analyzed by high-content analysis, where changes in cell morphology relative to the control (dimethyl sulfoxide, DMSO) would indicate modulation of cancer cells by compound treatment. […] At the second step, we treated the cells with the 60 compounds at a median concentration (3 μM) for 72 h to screen for inhibitors that can kill cancer cells with high efficiency.

MDA-MB-231 cells [2] = assay: Intracellular calcium measurement (Fluo-4-AM); assay type: cell-based, human; conditions: thrombin stimulation, different concentrations of the pan-HDAC inhibitors
Protocol: After treatment, the cells were digested and seeded in 96-well black plates (Corning Costar, Cambridge, MA, USA) and cultured for 20 h. For measurement of [Ca^2+]i, the cells were labeled with Fluo-4-AM in serum-free medium for half an hour at room temperature. After washing with Dulbecco's Phosphate Buffered Saline (D-PBS), cells were overlaid in Hank's balanced salt solution (5.4 mM KCl, 1 mM MgCl2, 20 mM hydroxyethyl piperazineethanesulfonic acid (HEPES), 120 mM NaCl, 10 mM glucose, 0.2 mM Ethylenebis(oxyethylenenitrilo)tetraacetic acid (EGTA)). Continuous fluorescence intensity was detected after thrombin was added as a calcium agonist by an automated sampler. Response over baseline was assessed as a relative measure of [Ca^2+]i.
As previously stated, studies have shown that the Ca^2+ signals can modulate cancer progression by regulating migration, proliferation, cell stress, and apoptosis.

HUVEC = assay: CCK8 assay IC50; assay type: cell-based, human; conditions: normal cells, 72 h
Protocol: (§3) Cell viability was then detected using a CCK8 assay (MedChemExpress, USA) according to the manufacturer's instructions.
as §2

MDA-MB-231 = assay: CCK8 assay IC50; assay type: cell-based, human; conditions: MDA-MB-231, breast cancer, 72 h, CCK8
Protocol: as §3, §2

MEF = assay: CCK8 assay IC50; assay type: cell-based, mouse; conditions: normal cells, 72 h
Text: as §1, §3
as §2, with “The asterisk (*) denotes statistically significant difference (P < 0.05).” left out

[3] = system: Primary breast tumor cells; assay: CCK8 assay IC50; assay type: cell-based, human; conditions: breast cancer, 72 h
Text: as §1, §3
as §2, with “The asterisk (*) denotes statistically significant difference (P < 0.05).” left out

A549 = assay: CCK8 assay IC50; assay type: cell-based; conditions: A549, lung cancer, 72 h
Protocol: as §3, §2

Caco-2 = assay: CCK8 assay IC50; assay type: cell-based; conditions: Caco-2, colon cancer, 72 h
Protocol: as §3, §2

HCT-15 = assay: CCK8 assay IC50; assay type: cell-based; conditions: HCT-15, colon cancer, 72 h
Protocol: as §3, §2

HeLa = assay: CCK8 assay IC50; assay type: cell-based; conditions: cervical cancer, 72 h
Protocol: as §3, §2

MCF-7 = assay: CCK8 assay IC50; assay type: cell-based; conditions: MCF-7, breast cancer, 72 h, CCK8
Protocol: as §3, §2

PANC-1 = assay: CCK8 assay IC50; assay type: cell-based; conditions: PANC-1, pancreatic cancer, 72 h
Protocol: as §3, §2

PC-3 = assay: CCK8 assay IC50; assay type: cell-based; conditions: PC-3, prostatic cancer, 72 h
Protocol: as §3, §2

SH-SY5Y = assay: CCK8 assay IC50; assay type: cell-based; conditions: neuroblastoma, 72 h
Protocol: as §3, §2

SMMC-7721 = assay: CCK8 assay IC50; assay type: cell-based; conditions: SMMC-7721, liver cancer, 72 h
Protocol: as §3, §2

T-47D = assay: CCK8 assay IC50; assay type: cell-based; conditions: breast cancer, 72 h
Protocol: as §3, §2

How did the “effect on cell survival” value (MDA-MB-231 cells [1]) turn out when `O=C(/C=C/c1cccc(S(=O)(=O)Nc2ccccc2)c1)NO` [belinostat] was run?
The value was “discernible effects on cell survival”.

With `O=C(CCCCCCC(=O)Nc1ccccc1)NO` [vorinostat] as the compound, how does the “effect on cell survival” value (MDA-MB-231 cells [1]) read?
The value was “discernible effects on cell survival”.

What about the “frequency and amplitude of [Ca^2+]i oscillations” value (MDA-MB-231 cells [2]) of the same compound?
The value was “did not alter the frequency and amplitude”.

Which results are given for `CC(/C=C/C(=O)NO)=C\[C@@H](C)C(=O)c1ccc(N(C)C)cc1` [TSA, trichostatin A]?
effect on cell survival (MDA-MB-231 cells [1]): discernible effects on cell survival; IC50 (HUVEC): < 1 µM and 0.83 µM; IC50 (MDA-MB-231): 1 µM; IC50 (MEF): < 1 µM and 0.891 µM; IC50 [3]: 2.31 µM; IC50 (A549): 1.31 µM; IC50 (Caco-2): 3 µM; IC50 (HCT-15): 2.3 µM; IC50 (HeLa): 0.572 µM; IC50 (MCF-7): 0.922 µM; IC50 (PANC-1): 1.43 µM; IC50 (PC-3): 1.31 µM; IC50 (SH-SY5Y): 0.72 µM; IC50 (SMMC-7721): 3.27 µM; IC50 (T-47D): 0.905 µM; frequency and amplitude of [Ca^2+]i oscillations (MDA-MB-231 cells [2]): did not alter the frequency and amplitude

Which “effect on cell survival” value (MDA-MB-231 cells [1]) does the source give for `CCCCc1nc2cc(/C=C/C(=O)NO)ccc2n1CCN(CC)CC` [pracinostat] here?
Its value is “discernible effects on cell survival”.

Which “effect on cell survival” value (MDA-MB-231 cells [1]) does the source give for `C#Cc1cccc(Nc2ncnc3cc(OC)c(OCCCCCCC(=O)NO)cc23)c1` [CUDC-101] here?
The value was “discernible effects on cell survival”.

For `Cc1cc(Nc2nc(N[C@@H](C)c3ccc(F)cc3)c(C#N)cc2F)[nH]n1` [AZ960], which “effect on cell survival” value (MDA-MB-231 cells [1]) is on record?
The value was “discernible effects on cell survival”.

How did the “frequency and amplitude of [Ca^2+]i oscillations” value (MDA-MB-231 cells [2]) turn out when `Cc1[nH]c2ccccc2c1CCNCc1ccc(/C=C/C(=O)NO)cc1` [panobinostat] was run?
Its value is “did not alter the frequency and amplitude”.

From PMC7797697 (Theranostics, 2021)
